Assay results taken from patent US10087192B2, “2-(het)aryl-substituted fused bicyclic heterocycle derivatives as pesticides” (BAYER CROPSCIENCE AKTIENGESELLSCHSAFT, priority 2015, dated 2018).

Experiments:
Type in all cases: in vivo
Phaedon cochleariae = Phaedon cochleariae spray test; conditions: after 7 days, larvae on Chinese cabbage leaf discs
Protocol: Phaedon cochleariae—Spray Test
Solvent: 78.0 parts by weight of acetone • • 1.5 parts by weight of dimethylformamide
Emulsifier: alkylaryl polyglycol ether
To produce a suitable preparation of active compound, 1 part by weight of active compound is dissolved using the stated parts by weight of solvent and made up with water containing an emulsifier concentration of 1000 ppm until the desired concentration is attained. To produce further test concentrations, the preparation is diluted with emulsifier-containing water.
After 7 days, the efficacy in % is determined. 100% means that all the beetle larvae have been killed; 0% means that no beetle larvae have been killed.

Ctenocephalides felis = Ctenocephalides felis oral test; conditions: 100 ppm in citrated cattle blood, after 2 days
Excerpt: Ctenocephalides felis—Oral Test Solvent: dimethyl sulphoxide […] Dilution with citrated cattle blood gives the desired concentration. About 20 unfed adult cat fleas (Ctenocephalides felis) are placed into a chamber which is closed at the top and bottom with gauze. A metal cylinder whose bottom end is closed with parafilm is placed onto the chamber. The cylinder contains the blood/active compound preparation, which can be imbibed by the fleas through the parafilm membrane.

Myzus persicae = Myzus persicae spray test (Chinese cabbage leaf discs); conditions: after 6 days
Protocol: Myzus persicae—Spray Test Solvent: 78 parts by weight of acetone • • 1.5 parts by weight of dimethylformamide Emulsifier: alkylaryl polyglycol ether […] To produce further test concentrations, the preparation is diluted with emulsifier-containing water. Discs of Chinese cabbage leaves (Brassica pekinensis) infested by all stages of the green peach aphid (Myzus persicae) are sprayed with an active compound preparation of the desired concentration.

Lucilia cuprina = Lucilia cuprina test; conditions: 100 ppm, after 2 days, L1 larvae
Protocol: (§1) Solvent: dimethyl sulphoxide
To produce a suitable preparation of active compound, 10 mg of active compound are mixed with 0.5 ml of dimethyl sulphoxide, and the concentrate is diluted with water to the desired concentration.
About 20 L1 larvae of the Australian sheep blowfly (Lucilia cuprina) are transferred into a test vessel containing minced horsemeat and the active compound preparation of the desired concentration.
After 2 days, the kill in % is determined. 100% means that all the larvae have been killed; 0% means that no larvae have been killed.

Spodoptera frugiperda = Spodoptera frugiperda spray test (maize leaf discs); conditions: after 7 days, caterpillars on maize leaf discs
Protocol: Spodoptera frugiperda—Spray Test Solvent: 78.0 parts by weight of acetone • • 1.5 parts by weight of dimethylformamide Emulsifier: alkylaryl polyglycol ether […] To produce further test concentrations, the preparation is diluted with emulsifier-containing water. Leaf discs of maize (Zea mays) are sprayed with an active compound preparation of the desired concentration and, after drying, populated with caterpillars of the armyworm (Spodoptera frugiperda).

Boophilus microplus = Boophilus microplus injection test; conditions: 20 μg/animal, assessed after 7 days
Protocol: Boophilus microplus—Injection Test
as §1
To produce a suitable preparation of active compound, 10 mg of active compound are mixed with 0.5 ml of solvent and the concentrate is diluted with solvent to the desired concentration.
1 μl of the active compound solution is injected into the abdomen of 5 engorged adult female cattle ticks (Boophilus microplus). The animals are transferred into dishes and kept in a climate-controlled room.
Efficacy is assessed after 7 days by laying of fertile eggs. Eggs which are not visibly fertile are stored in a climate-controlled cabinet until the larvae hatch after about 42 days. An efficacy of 100% means that none of the ticks has laid any fertile eggs; 0% means that all the eggs are fertile.

Compound	efficacy (Phaedon cochleariae; 500 g/ha) [%]	efficacy (Myzus persicae; 500 g/ha) [%]	efficacy (Spodoptera frugiperda; 500 g/ha) [%]	further results
CCS(=O)(=O)c1ccc(-n2ccc(SC(F)(F)F)c2)nc1-c1nc2cc(C(F)(F)F)ncc2n1C [Example 2]	100	90		efficacy (kill) (Ctenocephalides felis): 100%; efficacy (kill) (Lucilia cuprina): 100%
CCS(=O)(=O)c1ccc(-n2cc(S(C)(=O)=O)cn2)nc1-c1nc2cc(C(F)(F)F)ncc2n1C [Example 3]	100	90		efficacy (kill) (Ctenocephalides felis): 100%; efficacy (kill) (Lucilia cuprina): 100%
CCS(=O)(=O)c1ccc(-n2cc(C(=O)NC)cn2)nc1-c1nc2cc(C(F)(F)F)ncc2n1C [Example 4]	100	90		efficacy (kill) (Ctenocephalides felis): 100%; efficacy (kill) (Lucilia cuprina): 100%
CCS(=O)(=O)c1ccc(-n2cc(Cl)cn2)nc1-c1nc2cc(C(F)(F)F)ncc2n1C [Example 6]				efficacy (Spodoptera frugiperda; 100 g/ha): 100%; efficacy (kill) (Ctenocephalides felis): 95%
CCS(=O)(=O)c1ccc(-n2ccc(Cl)n2)nc1-c1nc2cc(C(F)(F)F)ncc2n1C [Example 9]	100			efficacy (Spodoptera frugiperda; 100 g/ha): 83%
CCS(=O)(=O)c1ccc(-n2ccc(COC)n2)nc1-c1nc2cc(C(F)(F)F)ncc2n1C [Example 10]		90		efficacy (kill) (Lucilia cuprina): 100%
CCS(=O)(=O)c1ccc(-n2ccc(C(=O)NC)n2)nc1-c1nc2cc(C(F)(F)F)ncc2n1C [Example 12]		90		
CCS(=O)(=O)c1ccc(-n2cnc(SC)n2)nc1-c1nc2cc(C(F)(F)F)ncc2n1C [Example 15]	100	90	83	
CCS(=O)(=O)c1ccc(-n2cc(SC)cn2)nc1-c1nc2cc(C(F)(F)F)ncc2n1C [Example 16]	100	100	100	
CCS(=O)(=O)c1ccc(-n2cccn2)nc1-c1nc2cc(C(F)(F)F)ncc2n1C [Example 21]				efficacy (Phaedon cochleariae; 20 g/ha): 83%; efficacy (Spodoptera frugiperda; 100 g/ha): 100%
CCS(=O)(=O)c1ccc(-n2ccc(NC(C)=O)n2)nc1-c1nc2cc(C(F)(F)F)ncc2n1C [Example 23]	100	90		efficacy (kill) (Lucilia cuprina): 100%
CCS(=O)(=O)c1ccc(-n2ccc(C(F)(F)F)n2)nc1-c1nc2cc(C(F)(F)F)ncc2n1C [Example 25]	100		100	efficacy (laying of fertile eggs) (Boophilus microplus): 80%; efficacy (kill) (Ctenocephalides felis): 100%; efficacy (kill) (Lucilia cuprina): 100%
CCS(=O)(=O)c1ccc(-n2cnc(C(F)(F)F)c2)nc1-c1nc2cc(C(F)(F)F)ncc2n1C [Example 27]	100			efficacy (kill) (Ctenocephalides felis): 95%
CCS(=O)(=O)c1ccc(-n2cc(F)cn2)nc1-c1nc2cc(C(F)(F)F)ncc2n1C [Example 28]				efficacy (Phaedon cochleariae; 100 g/ha): 100%; efficacy (Spodoptera frugiperda; 100 g/ha): 100%; efficacy (kill) (Ctenocephalides felis): 98%; efficacy (kill) (Lucilia cuprina): 100%
CCS(=O)(=O)c1ccc(-n2ccc(SC)n2)nc1-c1nc2cc(C(F)(F)F)ncc2n1C [Example 29]	100	90		
CCS(=O)(=O)c1ccc(-n2ncc(C(F)(F)F)n2)nc1-c1nc2cc(C(F)(F)F)ncc2n1C [Example 30]	100	90	100	efficacy (laying of fertile eggs) (Boophilus microplus): 95%; efficacy (kill) (Lucilia cuprina): 100%
CCS(=O)(=O)c1ccc(-n2ccc(S(C)(=O)=O)n2)nc1-c1nc2cc(C(F)(F)F)ncc2n1C [Example 35]	100	90		efficacy (kill) (Ctenocephalides felis): 100%; efficacy (kill) (Lucilia cuprina): 100%
CCS(=O)(=O)c1ccc(-n2cc(CSC)cn2)nc1-c1nc2cc(C(F)(F)F)ncc2n1C [Example 38]	100			
CCS(=O)(=O)c1ccc(-n2ccn(C)c2=O)nc1-c1nc2cc(C(F)(F)F)ncc2n1C [Example 39]	100			efficacy (Myzus persicae; 20 g/ha): 90%

Compound	efficacy (Phaedon cochleariae; 500 g/ha) [%]	efficacy (Myzus persicae; 500 g/ha) [%]	efficacy (Spodoptera frugiperda; 500 g/ha) [%]	further results
CCS(=O)(=O)c1ccc(N2CCSC2=O)nc1-c1nc2cc(C(F)(F)F)ncc2n1C [Example 42]	100	90		
CCS(=O)(=O)c1ccc(-n2nnn(C)c2=O)nc1-c1nc2cc(C(F)(F)F)ncc2n1C [Example 46]	100		100	
CCS(=O)(=O)c1ccc(-n2ccc(CSC)n2)nc1-c1nc2cc(C(F)(F)F)ncc2n1C [Example 47]	100			
CCS(=O)(=O)c1ccc(-n2nc(C)[nH]c2=O)nc1-c1nc2cc(C(F)(F)F)ncc2n1C [Example 48]	83		100	
CCS(=O)(=O)c1ccc(N2CCSC2)nc1-c1nc2cc(C(F)(F)F)ncc2n1C [Example 50]	100	100		
CCS(=O)(=O)c1ccc(-n2nnn(CC(F)(F)F)c2=O)nc1-c1nc2cc(C(F)(F)F)ncc2n1C [Example 52]	100	90		
CCS(=O)(=O)c1ccc(-n2ccc(C3CC3)n2)nc1-c1nc2cc(C(F)(F)F)ncc2n1C [Example 53]	100	90	100	efficacy (kill) (Ctenocephalides felis): 100%; efficacy (kill) (Lucilia cuprina): 100%
CCS(=O)(=O)c1ccc(-n2nnc(C(F)(F)F)n2)nc1-c1nc2cc(C(F)(F)F)ncc2n1C [Example 55]	100	90	100	
CCS(=O)(=O)c1ccc(-n2nnn(CC(F)(F)C(F)(F)F)c2=O)nc1-c1nc2cc(C(F)(F)F)ncc2n1C [Example 56]	100	100	100	
CCS(=O)(=O)c1ccc(-n2c(SC)nn(C)c2=O)nc1-c1nc2cc(C(F)(F)F)ncc2n1C [Example 58]	83			
CCS(=O)(=O)c1ccc(-n2cc(CS(C)(=O)=O)cn2)nc1-c1nc2cc(C(F)(F)F)ncc2n1C [Example 60]	100			efficacy (kill) (Ctenocephalides felis): 100%; efficacy (kill) (Lucilia cuprina): 95%
CCS(=O)(=O)c1ccc(-c2ccccn2)nc1-c1nc2cc(C(F)(F)F)ncc2n1C [Example 71]	100		100	
CCS(=O)(=O)c1ccc(-c2cccnc2)nc1-c1nc2cc(C(F)(F)F)ncc2n1C [Example 72]		90		efficacy (Phaedon cochleariae; 100 g/ha): 83%
CCS(=O)(=O)c1ccc(-c2cc[nH]c2)nc1-c1nc2cc(C(F)(F)F)ncc2n1C [Example 73]	100	90		
CCS(=O)(=O)c1ccc(-c2ccn[nH]2)nc1-c1nc2cc(C(F)(F)F)ncc2n1C [Example 75]	100		100	
CCS(=O)(=O)c1ccc(-c2cc(Cl)cs2)nc1-c1nc2cc(C(F)(F)F)ncc2n1C [Example 77]			100	
CCS(=O)(=O)c1ccc(-c2cnn(C)c2)nc1-c1nc2cc(C(F)(F)F)ncc2n1C [Example 83]	100	90	100	
CCS(=O)(=O)c1ccc(-c2cn[nH]c2)nc1-c1nc2cc(C(F)(F)F)ncc2n1C [Example 84]	83		100	
CCS(=O)(=O)c1ccc(-c2sccc2Cl)nc1-c1nc2cc(C(F)(F)F)ncc2n1C [Example 85]			100	
